According to patent publication US5677291A, “Method of lowering serum cholesterol levels with 2,6-di-alkyl-4-silyl-phenols” (Hoechst Marion Roussel, Inc., priority 1996, dated 1997):

What was measured:
Assay type in all cases: in vivo, New Zealand White rabbit
[1] = test system: Normolipidemic New Zealand Rabbits; experiment: Reduction in cholesterol levels of normolipidemic rabbits by concurrent administration of 0.5% Compound A (Example 21); conditions: normal diet with 0.5% drug; for Cholesterol: serum, n = 4
Procedure: New Zealand White rabbits (female, aged 3-4 months, weighing less than 3 kg), four in each group, were fed a normal diet (100 g rabbit chow daily) or a diet of 0.5% drug (100 g rabbit chow daily containing 0.5 g Compound A). Serum was collected and cholesterol levels were determined according to the method of Mao, et at., Clin. Chem. (1983) 29:1890-1897.

[2] = test system: 0.2% Cholesterol-Fed New Zealand White Rabbits; experiment: Serum total, LDL and HDL cholesterol and triglycerides in 0.2% cholesterol-fed rabbits, concurrent 0.4% drug (Example 20); set-up: triglycerides: reference not given here; conditions: 0.2% cholesterol/0.4% drug diet; for cholesterol (total) % Control / HDL cholesterol % Control / LDL cholesterol % Control: % of control; for HDL cholesterol % Control / LDL cholesterol % Control: serum, gel filtration HPLC
Excerpt: (§1) NZW rabbits (female, aged 3-4 months, weighing less than 3 Kg), six in each group, were fed a control diet of 0.2% cholesterol (100 g rabbit chow daily containing 0.2 g cholesterol) or a diet of 0.2% cholesterol/0.4% drug (100 g rabbit chow daily containing 0.2 g cholesterol and 0.4 g of drag). For Compound A, the rabbits were sacrificed by intravenous injection of pentobarbital after 56 days. For Compound G, K, E and H, the rabbits were sacrificed by intravenous injection of pentobarbital after 7 days. Plasma or serum was collected and cholesterol levels were determined using the enzymatic method of Mao, et at., Clin. Chem. (1983) 29:1890-1897. Liver weight and body weights were determined. Serum HDL and LDL cholesterol levels were determined using gel filtration HPLC modified from Kieft, K. A., et at., J. Lipid Res., 32:859-861 (1991), using Roche enzymatic cholesterol reagents. Triglyceride levels were determined by Cobas Automated Analyzer using Roche enzymatic reagents.

[3] = test system: 1% Cholesterol-Fed New Zealand White Rabbits; experiment: Reduction of cholesterol levels of 1% cholesterol-fed rabbits by concurrent administration of 0.5% Compound A (Example 18); conditions: 1% cholesterol/0.5% drug diet; for Cholesterol: plasma or serum, n = 6
Procedure: New Zealand Whim (NZW) rabbits (female, aged 3-4 months, weighing less than 3 kg) six in each group, were fed a control diet of 1% cholesterol (100 g rabbit chow daily containing 1 g cholesterol) or a diet of 1% cholesterol/0.5% drag (100 g rabbit chow daily containing 1 g cholesterol and 0.5 g Compound A). After 56 days, the rabbits were sacrificed by intravenous injection of pentobarbital. Plasma or serum was collected and cholesterol levels were determined using the enzymatic method of Mao, et at., Clin. Chem. (1983) 29:1890-1897.

[4] = test system: 0.2% Cholesterol-Fed New Zealand White Rabbits; experiment: Liver weight / body weight ratio in 0.2% cholesterol-fed rabbits, concurrent 0.4% drug (Example 20); conditions: 0.2% cholesterol/0.4% drug diet
Excerpt: as §1

[5] = test system: 0.2% Cholesterol-Fed New Zealand White Rabbits; experiment: Reduction of cholesterol levels of 0.2% cholesterol-fed rabbits by concurrent administration of 0.4% Compound A (Example 19); conditions: for Cholesterol: plasma or serum, n = 6
Procedure: NZW rabbits (female, aged 3-4 months, weighing less than 3 Kg), six in each group, were fed a control diet of 0.2% cholesterol (100 g rabbit chow daily containing 0.2 g cholesterol) or a diet of 0.2% cholesterol/0.4% drag (100 g rabbit chow daily containing 0.2 g cholesterol and 0.4 g Compound A). After 56 days, the rabbits were sacrificed by intravenous injection of pentobarbital. Plasma or serum was collected and cholesterol levels were determined using the enzymatic method of Mao, et at., Clin. Chem. (1983) 29: 1890-1897.

Structure (SMILES): CC(C)(C)c1cc(SC[Si](C)(C)c2ccccc2)cc(C(C)(C)C)c1O [Compound A, 2,6-Di-t-butyl-4[(dimethylphenylsilyl)methylthio]phenol]
- Cholesterol ([1]; day 0): 43.5 ± 4 mg/dL
- Cholesterol ([1]; day 8): 69.7 ± 6 mg/dL
- Cholesterol ([1]; day 14): 54.8 ± 8 mg/dL
- level of cholesterol significantly reduced by ([1]; day 23, compared to control rabbits): about 29%
- Cholesterol ([1]; day 23): 58.3 ± 6 mg/dL
- triglycerides ([2]; 56 days): 366%
- cholesterol (total) % Control ([2]; 56 days): 52%
- HDL cholesterol % Control ([2]; 56 days): 75%
- LDL cholesterol % Control ([2]; 56 days): 42%
- Cholesterol ([3]; day 0): 59 ± 8 mg/dL
- Cholesterol ([3]; day 14): 684 ± 99 mg/dL
- Cholesterol ([3]; day 28): 954 ± 126 mg/dL
- Cholesterol ([3]; day 42): 1118 ± 164 mg/dL
- Cholesterol ([3]; day 56): 1035 ± 152 mg/dL
- reduction of serum cholesterol ([3]; day 56, vs control): 57%
- liver wt/body wt ratio ([4]; 56 days): 120%
- reduction of cholesterol ([5]; 56 days, 0.2% cholesterol/0.4% drug diet): 64%
- cholesterol lowering (in words) ([5]; administration for 56 days, 0.2% cholesterol-fed rabbits): significant cholesterol lowering
- Cholesterol ([5]; day 0, 0.2% cholesterol/0.4% drug diet): 66 ± 8 mg/dL
- Cholesterol ([5]; day 7, 0.2% cholesterol/0.4% drug diet): 154 ± 17 mg/dL
- Cholesterol ([5]; day 14, 0.2% cholesterol/0.4% drug diet): 223 ± 32 mg/dL
- Cholesterol ([5]; day 28, 0.2% cholesterol/0.4% drug diet): 291 ± 59 mg/dL
- Cholesterol ([5]; day 42, 0.2% cholesterol/0.4% drug diet): 357 ± 89 mg/dL
- Cholesterol ([5]; day 56, 0.2% cholesterol/0.4% drug diet): 337 ± 100 mg/dL

Structure (SMILES): CC(C)(C)c1cc(OC[Si](C)(C)c2ccccc2)cc(C(C)(C)C)c1O [Compound G]
- triglycerides ([2]; 7 days): 104%
- cholesterol (total) % Control ([2]; 7 days): 72%
- HDL cholesterol % Control ([2]; 7 days): 81%
- LDL cholesterol % Control ([2]; 7 days): 69%
- liver wt/body wt ratio ([4]; 7 days): 104%

Structure (SMILES): COc1ccc([Si](C)(C)COc2cc(C(C)(C)C)c(O)c(C(C)(C)C)c2)cc1 [Compound H, 2,6-Di-t-butyl-4[(dimethyl-4-methoxyphenylsilyl)methyloxy]phenol]
- triglycerides ([2]; 7 days): 73%
- cholesterol (total) % Control ([2]; 7 days): 54%
- HDL cholesterol % Control ([2]; 7 days): 123%
- LDL cholesterol % Control ([2]; 7 days): 66%
- liver wt/body wt ratio ([4]; 7 days): 110%

Structure (SMILES): COc1ccccc1[Si](C)(C)COc1cc(C(C)(C)C)c(O)c(C(C)(C)C)c1 [Compound K, 2,6-Di-t-butyl-4-[(dimethy 1-2-methoxyphenylsilyl)methyloxy]phenol]
- triglycerides ([2]; 7 days): 131%
- cholesterol (total) % Control ([2]; 7 days): 77%
- HDL cholesterol % Control ([2]; 7 days): 217%
- LDL cholesterol % Control ([2]; 7 days): 61%
- liver wt/body wt ratio ([4]; 7 days): 90%

Structure (SMILES): CC(C)(C)c1cc(OC[Si](C)(C)c2ccc(Cl)cc2)cc(C(C)(C)C)c1O [E, 2,6 Di-t-butyl-4[(4-chlorophenyldimethylsilyl)methyloxy]phenol]
- triglycerides ([2]; 7 days): 82%
- cholesterol (total) % Control ([2]; 7 days): 87%
- HDL cholesterol % Control ([2]; 7 days): 109%
- LDL cholesterol % Control ([2]; 7 days): 89%
- liver wt/body wt ratio ([4]; 7 days): 93%
